Source: patent US11510952B2, “Ethanol extraction of psychoactive compounds from psilocybin fungus” (PSILO SCIENTIFIC LTD, priority 2020, dated 2022)

Experiments:
[1] = Solubility of psilocybin and psilocin in solvents; assay type: physicochemical
Description: Psilocybin and psilocin are soluble in methanol and water and are not soluble in isopropanol, ethanol and acetone. Experiments were performed to determine the best solvent compositions for extraction (FIGS. 32B and 32C; Table 7)

[2] = pH stability of purified psilocybin / psilocin over time under aqueous conditions; assay type: physicochemical; conditions: aqueous solutions across the pH spectrum
Description: The dephosphorylated indole alkaloids are well known to be unstable. Internal experiments have also quantified and substantiated these findings under aqueous conditions across the pH spectrum (Tables 5 and 6).

CN(C)CCc1c[nH]c2cccc(OP(=O)(O)O)c12 [Psilocybin]
solubility in acetone [1]: not soluble | solubility in ethanol [1]: not soluble | solubility in isopropanol [1]: not soluble | solubility in methanol [1]: soluble | solubility in water [1]: soluble

CN(C)CCc1c[nH]c2cccc(O)c12 [Psilocin]
maximum stability pH [2]: 4 pH | solubility in acetone [1]: not soluble | solubility in ethanol [1]: not soluble | solubility in isopropanol [1]: not soluble | solubility in methanol [1]: soluble | solubility in water [1]: soluble
